Data as given in patent publication US10653688B2, “6-(6-membered heteroaryl and aryl)isoquinolin-3-yl carboxamides and preparation and use thereof” (Samumed, LLC, priority 2017, dated 2020).
Where two headings read alike, the source gives them in different places.

Key:
recombinant GSK3β kinase = recombinant GSK3β kinase (Homo sapiens (Human), UniProt P49841); experiment: GSK3β kinase assay (Ser/Thr 09 peptide Z-lyte, FRET); assay type: biochemical;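 further: FRET read-out as coumarin over fluorescein emission ratio, compounds incubated one hour at room temperature, IC50 from dose-response curve fit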
[1] = tested on: Tau phosphorylation at Ser396 (pSer396) in SH-SY5Y cells; experiment: Tau phosphorylation at Ser396 (pSer396) cell assay, ELISA/western blot; assay type: cell-based, human; details: Homo sapiens; SH-SY5Y cells, overnight (16-18 h); read-out: pSer396 Tau EC50
[2] = tested on: SW480 colon carcinoma cells; experiment: Cell viability assay (CellTiter-Glo); assay type: cell-based, human; details: Homo sapiens; for EC50: 96 h, four days, CellTiter-Glo; for inhibition at 10 µM: read-out: percent inhibition at 10 μM (given for EC50 >10 μM), 10 μM
[3] = tested on: LL29 cells (primary human fibroblasts derived from IPF patients), α-smooth muscle actin; experiment: Inhibition of fibrotic process: TGF-β1-treated primary human fibroblasts, αSMA staining; assay type: cell-based; details: Homo sapiens, Fibroblast; for EC50: 96 h, TGF-β1 20 ng/mL, 4 days, % cells positive for αSMA; for inhibition at 10 µM: read-out: percent inhibition at 10 μM (given for EC50 >10 μM), TGF-β1, αSMA, 10 μM;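 on all read-outs here: controls were TGF-β1-stimulated wells with DMSO vehicle as the positive reference and cells given DMSO alone as the negative reference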
[4] = tested on: IL-6 in human peripheral blood mononuclear cells (huPBMCs); experiment: IL-6 inhibition in LPS-stimulated human peripheral blood mononuclear cells (HTRF); assay type: cell-based; details: Homo sapiens, PBMC; for EC50: LPS 50 ng/mL, 22 hours, IL-6 HTRF; for inhibition at 10 µM: read-out: percent inhibition at 10 μM (given for EC50 >10 μM), LPS, IL-6, 10 μM
Summary of the method: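 Fresh normal human PBMCs at 1×10e6 cells/mL in RPMI with 1% FBS received compound, then 50 ng/mL E. coli 0111:B4 LPS 2 h later, and were incubated a further 22 h at 37° C. IL-6 read by HTRF (665/620 nm ratio), normalized to DMSO; EC50 from 4-parameter fit.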

[5] = target: recombinant DYRK1A kinase (Homo sapiens (Human), UniProt Q13627); experiment: DYRK1A kinase assay (Ser/Thr 18 peptide Z-lyte, FRET)
[6] = tested on: pT212Tau in Dyrk1a- and MAPT-overexpressing HEK293T cells; experiment: Tau phosphorylation at Threonine 212 (pT212Tau) sandwich ELISA in double transfected cells; details: Homo sapiens, HEK-293T, read-out: Thr212 EC50 (μM)
[7] = GSK3β kinase, head says EC50, method says IC50, ATP 46 μM
[8] = DYRK1A kinase, head says EC50, method says IC50, ATP 30 μM

Sequence of recombinant GSK3β kinase (P49841 whole entry): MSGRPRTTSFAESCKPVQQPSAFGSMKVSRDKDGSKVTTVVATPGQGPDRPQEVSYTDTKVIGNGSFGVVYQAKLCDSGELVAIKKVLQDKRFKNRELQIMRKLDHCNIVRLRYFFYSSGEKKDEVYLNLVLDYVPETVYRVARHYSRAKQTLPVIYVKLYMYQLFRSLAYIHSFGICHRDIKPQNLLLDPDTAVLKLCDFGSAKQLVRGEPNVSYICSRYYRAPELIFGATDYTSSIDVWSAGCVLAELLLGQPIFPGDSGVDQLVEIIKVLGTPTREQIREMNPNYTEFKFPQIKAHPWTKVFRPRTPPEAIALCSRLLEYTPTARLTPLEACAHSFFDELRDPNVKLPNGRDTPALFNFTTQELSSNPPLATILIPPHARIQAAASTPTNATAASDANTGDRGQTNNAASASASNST

Compound | EC50 (recombinant GSK3β kinase; [7]) | EC50 [1] | EC50 [2] | EC50 [4] | EC50 [5, 8] | EC50 (recombinant GSK3β kinase) | EC50 [5] | inhibition at 10 µM [2] | EC50 [3] | EC50 [6] | inhibition at 10 µM [3] | inhibition at 10 µM [4]
CN1CCCN(CC(=O)Nc2cc3cc(-c4cccnc4)ccc3cn2)CC1 [Compound 12, 2-(4-Methyl-1,4-diazepan-1-yl)-N-(6-(pyridin-3-yl)isoquinolin-3-yl) acetamide] | 722 nM | 2300 nM | > 10000 nM | 9860 nM | 17 nM | – | – | 39.3% | 1190 nM | 0.284 µM | – | –
[2H]c1nc([2H])c(-c2ccc3cnc(NC(=O)CN4CCN(C)CC4)cc3c2)c([2H])c1[2H] [Compound 61, 2-(4-Methylpiperazin-1-yl)-N-(6-(pyridin-3-yl-d4)isoquinolin-3-yl)acetamide] | – | 9800 nM | > 10000 nM | > 10000 nM | – | 1030 nM | 11 nM | 21.6% | > 10000 nM | 0.121 µM | 4.6% | 26.4%
O=C(Nc1cc2cc(-c3cccnc3)ccc2cn1)C1CC1 [Compound 6, N-(6-(Pyridin-3-yl)isoquinolin-3-yl)cyclopropanecarboxamide] | 56 nM | 798 nM | 1600 nM | 1030 nM | 2 nM | – | – | – | 197 nM | 0.01 µM | – | –
CN1CCC(C(=O)Nc2cc3cc(-c4cccnc4)ccc3cn2)CC1 [Compound 8, 1-Methyl-N-(6-(pyridin-3-yl)isoquinolin-3-yl)piperidine-4-carboxamide] | 652 nM | 795 nM | 3140 nM | 1970 nM | 2 nM | – | – | – | 398 nM | 0.019 µM | – | –
O=C(Nc1cc2cc(-c3cnccn3)ccc2cn1)C1CCN(CCF)CC1 [Compound 77, 1-(2-Fluoroethyl)-N-(6-(pyrazin-2-yl)isoquinolin-3-yl)piperidine-4-carboxamide] | 1070 nM | > 10000 nM | > 10000 nM | > 10000 nM | 11 nM | – | – | 33.8% | 4760 nM | 0.062 µM | – | 9.6%

The next lines start with results.

EC50 (recombinant GSK3β kinase; [7]) | EC50 [1] | EC50 [2] | EC50 [4] | EC50 [5, 8] | EC50 (recombinant GSK3β kinase) | EC50 [5] | Compound | inhibition at 10 µM [2] | EC50 [3] | EC50 [6] | inhibition at 10 µM [3] | inhibition at 10 µM [4]
97 nM | 1100 nM | 6440 nM | 4820 nM | 5 nM | – | – | O=C(Cn1ccnc1)Nc1cc2cc(-c3cccnc3)ccc2cn1 [Compound 15, 2-(1H-Imidazol-1-yl)-N-(6-(pyridin-3-yl)isoquinolin-3-yl)acetamide] | – | 1520 nM | 0.2 µM | – | –
623 nM | 7800 nM | > 10000 nM | > 10000 nM | 9 nM | – | – | Cc1cncc(-c2ccc3cnc(NC(=O)CN4CCOCC4)cc3c2)c1 [Compound 146, N-(6-(5-Methylpyridin-3-yl)isoquinolin-3-yl)-2-morpholinoacetamide] | 23.1% | > 10000 nM | 0.054 µM | 23.8% | 0%
26 nM | 129 nM | 364 nM | 400 nM | 1 nM | – | – | CC(C)Nc1cncc(-c2ccc3cnc(NC(=O)C4CCN(C)CC4)cc3c2)n1 [Compound 88, N-(6-(6-(Isopropylamino)pyrazin-2-yl)isoquinolin-3-yl)-1-methylpiperidine-4-carboxamide] | – | > 10000 nM | < 0.003 µM | 31.9% | –
111 nM | 1600 nM | > 10000 nM | 9030 nM | 7 nM | – | – | Cc1nccn1CC(=O)Nc1cc2cc(-c3cccnc3)ccc2cn1 [Compound 14, 2-(2-Methyl-1H-imidazol-1-yl)-N-(6-(pyridin-3-yl)isoquinolin-3-yl) acetamide] | 47.6% | 2240 nM | 0.043 µM | – | –
3200 nM | > 10000 nM | > 10000 nM | > 10000 nM | 42 nM | – | – | CN1CCN(CC(=O)Nc2cc3cc(-c4ccc(F)nc4)ccc3cn2)CC1 [Compound 21, N-(6-(6-Fluoropyridin-3-yl)isoquinolin-3-yl)-2-(4-methylpiperazin-1-yl) acetamide] | 50% | 3400 nM | 1.5 µM | – | 6.3%
